Reference: US10934274B2, “Quinoline derivatives as TAM RTK inhibitors” (Qurient Co., Ltd., priority 2015, dated 2021)

Columns and labels:
Axl = molecular target: T1, Axl (Homo sapiens, UniProt P30530); experiment: LanthaScreen Eu kinase binding assay, Axl; conditions: Tracer 236
T1 construct: purchased Life Technologies
T1 sequence (P30530 26-894): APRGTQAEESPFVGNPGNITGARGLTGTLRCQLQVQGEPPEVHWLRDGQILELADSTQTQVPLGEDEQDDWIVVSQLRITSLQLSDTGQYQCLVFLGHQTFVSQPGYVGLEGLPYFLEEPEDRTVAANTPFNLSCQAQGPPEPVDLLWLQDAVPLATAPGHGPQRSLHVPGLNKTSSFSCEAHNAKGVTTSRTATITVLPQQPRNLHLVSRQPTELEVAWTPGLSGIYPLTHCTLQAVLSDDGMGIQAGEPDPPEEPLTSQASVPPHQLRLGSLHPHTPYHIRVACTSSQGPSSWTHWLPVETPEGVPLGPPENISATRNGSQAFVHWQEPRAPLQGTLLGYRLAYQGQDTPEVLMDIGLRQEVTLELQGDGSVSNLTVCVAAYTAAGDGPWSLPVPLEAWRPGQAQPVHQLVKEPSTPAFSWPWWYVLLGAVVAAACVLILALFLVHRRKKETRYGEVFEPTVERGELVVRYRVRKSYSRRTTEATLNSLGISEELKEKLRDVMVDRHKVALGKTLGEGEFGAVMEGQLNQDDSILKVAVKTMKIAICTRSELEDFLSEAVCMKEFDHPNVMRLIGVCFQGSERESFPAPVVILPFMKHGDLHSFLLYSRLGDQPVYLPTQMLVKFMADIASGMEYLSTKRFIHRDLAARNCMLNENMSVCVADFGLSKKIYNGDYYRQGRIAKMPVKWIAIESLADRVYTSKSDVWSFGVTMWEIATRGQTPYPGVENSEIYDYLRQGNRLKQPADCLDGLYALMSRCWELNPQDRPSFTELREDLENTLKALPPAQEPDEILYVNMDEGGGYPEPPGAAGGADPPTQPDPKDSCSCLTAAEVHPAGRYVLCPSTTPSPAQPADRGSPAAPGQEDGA

TYRO3 = molecular target: T2, TYRO3 (Homo sapiens, UniProt Q06418); experiment: LanthaScreen Eu kinase binding assay, TYRO3; conditions: Tracer 236
T2 construct: purchased Life Technologies
T2 sequence (Q06418 41-890): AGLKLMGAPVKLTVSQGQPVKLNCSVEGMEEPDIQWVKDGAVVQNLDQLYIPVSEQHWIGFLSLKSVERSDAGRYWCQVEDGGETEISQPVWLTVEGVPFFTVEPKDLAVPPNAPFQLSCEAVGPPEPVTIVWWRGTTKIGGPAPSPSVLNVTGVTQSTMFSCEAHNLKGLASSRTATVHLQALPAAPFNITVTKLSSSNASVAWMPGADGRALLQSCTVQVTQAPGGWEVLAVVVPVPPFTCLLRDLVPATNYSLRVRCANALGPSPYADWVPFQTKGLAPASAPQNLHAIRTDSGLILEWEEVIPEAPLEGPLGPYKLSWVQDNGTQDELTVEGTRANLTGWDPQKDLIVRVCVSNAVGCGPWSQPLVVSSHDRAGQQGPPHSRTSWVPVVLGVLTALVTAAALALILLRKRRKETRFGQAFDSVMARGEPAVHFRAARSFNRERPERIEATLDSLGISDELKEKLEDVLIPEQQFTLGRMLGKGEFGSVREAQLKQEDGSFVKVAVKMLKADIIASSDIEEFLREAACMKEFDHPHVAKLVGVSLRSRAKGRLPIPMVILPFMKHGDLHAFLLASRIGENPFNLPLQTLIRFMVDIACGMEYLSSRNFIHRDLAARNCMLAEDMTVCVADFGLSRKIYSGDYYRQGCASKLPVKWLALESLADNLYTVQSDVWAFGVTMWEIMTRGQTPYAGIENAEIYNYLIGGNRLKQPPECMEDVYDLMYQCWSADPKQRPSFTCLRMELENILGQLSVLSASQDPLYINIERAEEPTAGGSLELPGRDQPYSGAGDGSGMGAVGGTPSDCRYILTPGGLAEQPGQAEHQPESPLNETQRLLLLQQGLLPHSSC

Kd (Axl) [nM] | Kd (TYRO3) [nM] | Structure (SMILES)
< 100 | < 100 | COc1cc2nccc(Oc3ccc(NC(=O)c4nn(-c5cnc(N)nc5)cc4OCC4CCC4)nc3)c2cc1OC [Compound 262]
< 100 | < 100 | COc1cc2nccc(Oc3ccc(NC(=O)c4nn(-c5ccc(F)cc5Cl)cc4OCC4CC4)nc3)c2cc1OC [Compound 263]
< 100 | < 100 | COc1cc2nccc(Oc3ccc(NC(=O)c4nn(-c5ccc(F)cc5OC)cc4OCC4CC4)nc3)c2cc1OC [Compound 264]
100 to 1000 | ≥ 1000 | COc1cc2nccc(Oc3ccc(NC(=O)c4nn(-c5cnc(N)nc5)cc4OCC4CNC4)nc3)c2cc1OC [Compound 265]
< 100 | < 100 | COc1cc2nccc(Oc3ccc(NC(=O)c4nn(-c5ccc(F)cc5N5CCOCC5)cc4OCC4CC4)nc3)c2cc1OC [Compound 266]
< 100 | < 100 | COc1cc2nccc(Oc3ccc(NC(=O)c4nn(-c5ccc(F)cc5F)cc4OCC4CC4)nc3)c2cc1OC [Compound 267]
< 100 | < 100 | COc1cc2nccc(Oc3ccc(NC(=O)c4nn(-c5ccc(F)cc5F)cc4OCC(F)(F)F)nc3)c2cc1OC [Compound 268]
< 100 | < 100 | COc1cc2nccc(Oc3ccc(NC(=O)c4nn(-c5cnc(N)nc5)cc4OCC4COC4)nc3)c2cc1OC [Compound 269]
100 to 1000 | 100 to 1000 | COc1cc2nccc(Oc3ccc(NC(=O)c4nn(-c5ccc(F)cc5C5CCCC5)cc4OCC4CC4)nc3)c2cc1OC [Compound 270]
100 to 1000 | 100 to 1000 | COc1cc2nccc(Oc3ccc(NC(=O)c4nn(-c5ccc(F)cc5Oc5ccccc5)cc4OCC4CC4)nc3)c2cc1OC [Compound 272]
< 100 | 100 to 1000 | COc1cc2nccc(Oc3ccc(NC(=O)c4nn(-c5ccc(F)cc5C(C)=O)cc4OCC4CC4)nc3)c2cc1OC [Compound 273]
< 100 | < 100 | COc1cc2nccc(Oc3ccc(NC(=O)c4nn(-c5ccc(F)c(C(C)=O)c5)cc4OCC4CC4)nc3)c2cc1OC [Compound 274]
